Results as given in patent publication US20240226170A9, “USE OF MBV FOR TREATING AUTOIMMUNE DISEASE” (University of Pittsburgh - Of the Commonwealth System of …, priority 2019, published 2024).

Assays:
[1] = system: Pristane-induced arthritis; experiment: Pristane-induced arthritis in rats, 60-point arthritis score; format: in vivo; settings: for disease severity (arthritis score) compared to Pristane+PBS: p<0.05
Description: The Pristane-induced arthritis model in rats has been established as a clinically-relevant animal model for studying rheumatoid arthritis (Tuncel et al. PLoS One. 2016; 11(5):e0155936). Pristane induced arthritis was induced in 8-week-old, female, Sprague-Dawley rats by an intradermal injection of 300 μL Pristane (2,6,10,14-tetramethypentadecane) at the dorsal side of the tail, 1 cm distal to the base on Day 0 of the study. […] A second dose of 300 μL pristane was administered intradermally, approximately 1 cm distally to the dorsal tail base on Day 4. Animals receiving Pristane were housed together in cages. Animals receiving Pristane were randomized into the following experimental groups: Pristane-only+PBS, Pristane+i.p. Methotrexate (MTX), Pristane+periarticular (p.a.) MBV, and intravenous (i.v.) MBV.
An arthritis score was determined on days 7, 10, 14, 17, 21, 28, and every week thereafter through an endpoint of 100 days for each animal. Photographs of each forepaw and hindpaw were taken as viewed from the volar and plantar perspectives, respectively. Qualitative arthritis severity was evaluated by two independent reviewers using a 60-point arthritis scoring criteria: 1 point was given for each inflamed knuckle or toe, and up to 5 points was assigned for an affected ankle (15 points per paw, 60 points per each rat). […] The Pristane+i.p. methotrexate animals received 0.1 mg/kg methotrexate in 1× sterile PBS (pH 7.4) delivered intra-peritoneally (i.p.) on days 7, 10, 14, 17, and 21. The Pristane+periarticular MBV animals received 25 μL of 500 μg/mL porcine-derived UBM MBV (1×10^11 particles/mL) delivered in the plantar and volar surfaces of hindpaws and forepaws, respectively. The intravenous MBV group received 100 μL of 500 μg/mL UBM MBV (1×10^11 particles/mL) delivered intravenously into the lateral tail vein of the animal. (FIG. 12A) Four animals in each group were assigned to a short-term study of 28 days and four animals were assigned to a 100 day study. Sample size was determined using previously published effect size of methotrexate with a predetermined alpha 0.05 and beta 0.80. Arthritis score was represented as mean+/−standard error of mean. Days 7-21 represent an n of 8 for each group and then days 28 and onward represent an n of 4 for each group. Differences in groups were analyzed using two-way analysis of variance with Tukey's post-hoc correction. Significance was determined prior to the study as p<0.05.

[2] = system: tibiotalar joint and adjacent synovium; experiment: Histopathologic scoring of the tibiotalar joint at day 100 (pristane-induced arthritis); format: in vivo, Sprague-Dawley rats; settings: i.p. MTX, not significant (p>0.05)
Description: Synovial inflammation, cartilage destruction, and proteoglycan loss are fundamental histopathologic changes that occur in RA disease progression. To determine the effect of MBV treatment on these histopathologic parameters, rat hind paws were collected at study termination for histopathologic imaging and analysis (day 100) from the animals from Example 2.
One hindpaw from each animal was used for histopathological analysis. Tissue specimens were fixed with 10% formalin in PBS, pH 7.4, decalcified using 5% formic acid, and embedded in paraffin wax. Sections were stained with hematoxylin and eosin (H&E) for examination by light microscopy for joint histology and pathology. […]
Inflammation and joint damage of the tibiotalar joint were investigated by using an adapted three-parameter scoring system. Inflammation was scored on a scale of 0-3 (with 0 representing no inflammation and 3 a severe inflamed joint) depending on the relative proportion of inflammatory cells in the synovial tissue. Cartilage destruction was scored on a scale of 0-3, with results ranging from the appearance of dead chondrocytes and empty lacunae to complete loss of articular cartilage. Loss of proteoglycans in cartilage was scored on a scale of 0-3, and here results ranged from fully stained cartilage by toluidine blue staining to complete loss of articular cartilage. […]

[3] = system: bone remodeling and joint destruction in fore- and hindpaws; experiment: MicroCT imaging of paws at day 100 (pristane-induced arthritis); format: in vivo, Sprague-Dawley rats; settings: i.p. MTX, qualitative
Description: Micro-Computed Tomography (microCT) images were acquired of hindpaws after sacrifice at day 100 of the animals studied in Example 2.

[4] = system: antibody response to the KLH antigen; settings: days 7, 14, and 21 post-immunization; MBV 1 mg/ml i.v. on Day 0, 3, 6; cyclophosphamide 200 mg/kg i.p. on Day 0
Description: The Keyhold Limpet Hemocyanin (KLH) rat model of immunosuppression and immunotoxicity was used to assess immunotoxicity of MBV delivered systemically. […] On Day 0, the cyclophosphamide treated animals received 200 mg/kg i.p. and the MBV treated animals received 1 mg/ml UBM MBV delivered intravenously on Day 0, 3, and 6. On Day 7, all groups besides the vehicle control were immunized with 0.4 mL of 1000 μg/ml reconstituted KLH in Freund's incomplete adjuvant i.p. On days 14, 21, and 28 (7, 14, and 21 days post-immunization), whole blood was collected from the lateral tail vein and serum was isolated for analysis of anti-KLH IgM and IgG. Anti-KLH IgM and IgG were assessed in the serum of all animals using ELISA.

| SMILES | peak disease score ([1]; acute phase (days 0-42), Pristane+i.p. MTX 0.1 mg/kg on days 7, 10, 14, 17, 21, peak at day 21, mean±SEM) | disease severity (arthritis score) compared to Pristane+PBS ([1]; acute phase, Pristane+i.p. MTX 0.1 mg/kg) | disease severity (arthritis score) compared to Pristane+PBS ([1]; acute phase, Pristane+i.p. MTX 0.1 mg/kg, listed as methotrexate) | disease severity (arthritis score) compared to Pristane+PBS ([1]; chronic phase, days 84-100, no treatment after day 28, Pristane+i.p. MTX) | disease severity (arthritis score) compared to Pristane+PBS ([1]; chronic phase, days 84-100, no treatment after day 28, Pristane+i.p. MTX, listed as methotrexate) | severity of cartilage damage compared to Pristane+PBS [2] | severity of proteoglycan loss compared to Pristane+PBS [2] | adverse bone remodeling by microCT, compared to the vehicle control [3] | anti-KLH IgG levels compared to the Vehicle+KLH control [4] | anti-KLH IgM levels compared to the Vehicle+KLH control [4] |
| --- | --- | --- | --- | --- | --- | --- | --- | --- | --- | --- |
| CN(Cc1cnc2nc(N)nc(N)c2n1)c1ccc(C(=O)N[C@@H](CCC(=O)O)C(=O)O)cc1 [MTX, methotrexate] | 9.8±0.8 | reduced acute disease severity at days 10, 14, 17, and 21 | significantly reduces disease scoring | significant decrease in disease severity | significantly reduces disease scoring | reduced the severity of cartilage damage | reduced the severity of proteoglycan loss | substantially prevented adverse bone remodeling | – | – |
| O=P1(N(CCCl)CCCl)NCCCO1 (stereo not shown) [Cyclophosphamide] | – | – | – | – | – | – | – | – | significantly reduces anti-KLH IgG levels | significantly reduces anti-KLH IgM levels |
